# Experimental data from patent US9943489B2 (PHARMATWOB LTD., priority 2010, dated 2018).
# Columns and labels:
# MPTP mouse model of PD [1] = assay: Aminoindan in MPTP mouse model of PD, striatal dopamine by HPLC; assay type: in vivo; conditions: MPTP mice; SR by ALZET pump for 12 days, compared with vehicle or daily IP injection of same drug
# Protocol: (§1) Striatum tissue samples were homogenized in ice in 500 μl homogenization buffer (0.1M perchloric acid, 0.02% EDTA and 1% ETOH) using OMNI Tip homogenizing kit of OMNI International (intermediate speed, 3×10 seconds with 5 seconds intervals). The homogenates were sonicated for 5 min and were then centrifuged at 15,000 rpm at 4° C. for 15 min. The supernatants were transferred into fresh tubes and dopamine content was analyzed by HPLC.
# Male C57B1/6 mice weighing 20+/−1 g were used in all experiments (10 mice per group). MPTP was administrated by IP injection at a dose of 40 mg/Kg per day for 5 days. Controls were naïve untreated mice injected with saline, and MPTP-treated mice injected with saline. Aminoindan was applied for 12 days either by daily IP injection or by sustained release using an ALZET pump implanted IP. The effect of the treatments was assessed by measurement of dopamine and its metabolites (dihydroxyphenylacetic acid and homovanillic acid) in left and right striatum taken from the mice at the end of the experiment. Striatum tissue samples were prepared for HPLC as described in Experimental.
# MPTP mouse model of PD [2] = assay: Rasagiline-pramipexole combinations in MPTP mouse model of PD, striatal dopamine by HPLC; assay type: in vivo; conditions: for dopamine levels compared to naïve mice: sustained release over 24 hours
# Source text: A significant body of biochemical data from human brain autopsy studies and those from animal models point to an ongoing process of oxidative stress in the substantia nigra which could initiate dopaminergic neurodegeneration.
# MPTP is converted in the brain into the positively charged molecule MPP^+ (1-methyl-4-phenylpyridinium) by the enzyme monoamine oxidase (MAO)-B, causing parkinsonism in primates by killing certain dopamine-producing neurons in the substantia nigra. MPP^+ acts by interfering with oxidative phosphorylation in mitochondria, causing depletion of ATP and cell death.
# as §1
# The study included 10 groups of about 7-9 mice each, which were treated according to Table 1. […] MPTP was daily injected, during the initial 5 days (days 0-4), and the drug combinations were administered on days 0-11, either IP or using ALZET pump (ALZET micro-osmotic pump, model 1002 with a rate of 0.25 μl/hr, DURECT Corporation, Cupertino, USA) to simulate sustained release. Groups 5-7 were administered with the drug combination 30 min before MPTP application, daily during the initial five days (day 0-4), and on the following days (5-11) drugs are administrated approximately at the same time each dosing day. The ALZET pump was intraperitonealy implanted 15-17 hours before first MPTP administration (groups 8-10), and the total amount of drugs applied by the pump during the dosing period was identical to that given to the IP-injected groups. Controls were naïve untreated mice injected with saline, and MPTP-administered mice injected with saline.
# Body weight was measured prior to dosing and every day during the dosing, and individual body weight changes were calculated. Clinical signs were recorded twice weekly throughout the entire study. At study termination day 12, all animals were euthanatized via CO2 asphyxiation. The brain was rapidly removed, placed on a refrigerated plate and dissected. The left and right striatum were removed, weighted, snap-frozen in liquid nitrogen, and stored in −70° C. until further processing. Striatum tissue samples were prepared for HPLC as described in Experimental.
# [3] = rat, in vivo, 1.5 mg/kg
# Protocol: The cannulas were placed either in the colon, duodenum and jugular vein for colonic bolus, duodenal bolus and intravenous bolus administration, respectively. A single bolus dose administration to each compartment was done. In addition, a second indwelling cannula was placed in the right vein of each animal for systemic blood sampling. Blood samples (0.5 ml) were taken at 5 minutes pre-dose, 5, 15, 30, 50, 90, 150 and 200 minutes post-dose. To prevent dehydration, equal volumes of physiological solution were administrated to the rats following each withdrawal of blood sample. […] Non-compartmental pharmacokinetic analysis was performed using Excel software. The area under the curve (AUC) was calculated by non-compartmental analysis to the final measurable sample using the linear-log trapezoid method.
# 6-OHDA rat model of PD = conditions: 6-OHDA rats; SR by ALZET pump 28 days compared with daily IP injections; amphetamine 1.5 mg/kg IP, 60 min recording
# Source text: Since in PD it is mainly the dopaminergic nigrostriatal pathway that is subject to degeneration, animal models have been developed in which 6-OHDA lesions of the dopaminergic system were made by unilateral injection of the toxin directly into major efferent projection of the nigrostriatal bundle.
# Unilaterally lesioning of the Medial Forebrain Bundle (MFB) by 6-OHDA causes unilaterally destruction of the dopaminergic neurons of the nigrostriatal pathway leading to asymmetry in motor behavior of rats. […] More specifically, administration of the DA-releasing agent D-amphetamine creates a dopamine imbalance that favors the nonlesioned nigrostriatal projection and thus produces clockwise rotations. […] Drug-induced rotations are measured using an automated rotometer consisting of a rotation bowl and a swivel attached to the torso of the rat.
# Male adult Sprague-Dawley rats weighing 250-300 g were lesioned with 6-OHDA in the middle forebrain bundle (MFB). Rats were anesthetized with Ketamine-Xylazine (85:15) 0.1 ml/100 g and mounted in the stereotaxic apparatus. 6-OHDA was injected into unilateral MFB according to the following stereotaxic coordinates: AP-2.8 mm, ML-2 mm relatively to the bregma, and DV-9 relatively from the Dura. The injection rate was 1 μl/min using an injection pump and Hamilton micro-syringe. […]
SMILES,brain dopamine levels (MPTP mouse model of PD [1]),"dopamine content compared to naïve mice (MPTP mouse model of PD [2]; acute administration, rasagiline 0.1, 0.12 or 0.15 mg/kg (similar effect))",dopamine levels compared to naïve mice (MPTP mouse model of PD [2]; rasagiline 0.1 mg/kg),dopamine levels compared to naïve mice (MPTP mouse model of PD [2]; rasagiline 0.12 mg/kg),dopamine levels compared to naïve mice (MPTP mouse model of PD [2]; rasagiline 0.15 mg/kg),F (% of IV dose) [3],AUC ([3]; iv),CL ([3]; iv),T1/2 ([3]; iv),Vss ([3]; iv),amphetamine-induced net rotation (CW-CCW) (6-OHDA rat model of PD)
"NC1CCc2ccccc21 (centres unmarked) [aminoindan, 1-aminoindan]",significant restoration of dopamine levels,,,,,,,,,,
"C#CCN[C@@H]1CCc2ccccc21 [rasagiline, R(+)—N-propargyl-1-aminoindan]",,around 60%,57%,74%,88%,~100%,"23,641 ± 3,481 hr * ng/ml",54.3 ± 7.1 mL/min/kg,42.7 ± 5.5 min,"2,404 ± 408 ml/Kg",significantly improved effect in net rotation
